Measured values published in patent publication US5310667A (priority 1989, dated 1994).
pKi: −log10 of the molar value. “Also recorded” adds a separate entry of the source.

What was measured:
[1] = test system: E. coli SR481 (aroA-) carrying pMON8143; assay: Growth on minimal medium containing glyphosate; assay type: cell-based
Text: (§1) Chromosomal DNA isolated from the E. coli strain SR20 (GM42 hfr, his-, dam3-) was digested completely with MboI. The MboI fragments were cloned into the BglII site of plasmid pMON9564. The BglII site is in a multilinker located upstream of the promoterless petunia EPSPS coding sequence which had been tailored for expression in E. coli. The ligation mixture was used to transform E. coli strain SR481, the aroA- variant lacking endogenous EPSPS activity. Forty-one colonies were obtained which contained MboI fragments with sufficient promoter activity to express the Petunia EPSPS cDNA, complementing the aroA defect in SR481 and supporting cell growth on minimal medium. The 41 colonies were streaked individually onto MOPS minimal medium containing glyphosate at 1, 5, 10, 15 and 20 μM concentrations. The amount of cell growth on increasing concentrations of glyphosate was used as a measure of the relative promoter strength of each MboI fragment expressing the petunia EPSPS coding sequence. To further characterize each of the MboI promoter fragments, plasmid miniprep DNA was prepared by the alkaline lysis method from each of the 41 colonies and was digested individually with EcoRI, BamHI, HindIII, ClaI and NcoI. Those restriction enzymes were chosen because they cut within, or flank the petunia EPSPS coding sequence and would be used for mobilizing mutagenized fragments. Therefore, ideal promoter fragments would not contain restriction sites for any of those enzymes. There were 8 MboI fragments with varying degrees of promoter activity which lacked restriction sites for the enzymes listed above. Two of them, pMON8105 and pMON8143, were selected for further characterization. Both plasmids complemented the aroA defect and supported the growth of SR481 on minimal medium containing up to 1 mM (pMON8105) and 20 mM (pMON8143) glyphosate.

[2] = test system: E. coli SR481 (aroA-) carrying pMON8105; assay: Growth on minimal medium containing glyphosate; assay type: cell-based
Text: as §1

[3] = test system: control petunia plants (wildtype or control vector pMON505); assay: Plant response to glyphosate spraying; assay type: in vivo; details: 0.8 #/acre acid equivalent, isopropylamine salt, sprayed
Description: (§2) Four individual representative transgenic seedlings were selected, grown and tested in the testing procedure described below, along with four individual non-transformed (wild-type) petunia seedlings.
(§3) The plants were grown in a growth medium in a growth chamber at 26° C. with 12 hours of light per day. The plants were fertilized weekly with a soluble fertilizer and watered as needed. The plants were sprayed at a uniform and reproducible delivery rate of herbicide by use of an automated track sprayer. The glyphosate solution used was measured as pounds of glyphosate acid equivalents per acre, mixed as the glyphosate isopropylamine salt, with an ionic surfactant.
(§4) Four individual wild-type (non-transformed) petunia plants were selected for use as control plants. Four individual transformed plants containing the pMON546 vector were selected by kanamycin resistance as described by Horsch, et al. (1985).
(§5) The control plants and the transformed plants were sprayed with the isopropylamine salt of glyphosate at the application level listed in Table 2 below; the experimental results obtained are also summarized in Table 2.

[4] = test system: transformed petunia plants containing pMON546 (Chimeric EPSP); assay: Plant response to glyphosate spraying; assay type: in vivo; details: 0.8 #/acre acid equivalent, isopropylamine salt, sprayed
Description: as §2, §3, §4, §5

[5] = test system: variant soybean EPSPS (gly 104 to ala, gly 147 to asp) from pMON9953; assay: Glyphosate tolerance of EPSP synthase extracted from bacteria; assay type: biochemical, Glycine max; details: enzyme extracted from E. coli SR481 with pMON9953
Text: An E. coli expression vector for wild type soybean EPSPS was constructed by engineering an NcoI site at the predicted start of the mature soybean coding sequence by the method of Kunkel (1985). This sequence was then inserted into pMON9563, replacing the coding sequence for mature petunia EPSPS resulting in pMON9904.

[6] = molecular target: T1, petunia EPSP synthase glycine (101) to alanine variant (Petunia hybrida, UniProt P11043, G173A); assay: EPSP synthase kinetic constants (appKi glyphosate, appKm PEP); assay type: biochemical
T1 construct: made in house; host or cells: E. coli
T1 sequence (P11043 73-516 G173A): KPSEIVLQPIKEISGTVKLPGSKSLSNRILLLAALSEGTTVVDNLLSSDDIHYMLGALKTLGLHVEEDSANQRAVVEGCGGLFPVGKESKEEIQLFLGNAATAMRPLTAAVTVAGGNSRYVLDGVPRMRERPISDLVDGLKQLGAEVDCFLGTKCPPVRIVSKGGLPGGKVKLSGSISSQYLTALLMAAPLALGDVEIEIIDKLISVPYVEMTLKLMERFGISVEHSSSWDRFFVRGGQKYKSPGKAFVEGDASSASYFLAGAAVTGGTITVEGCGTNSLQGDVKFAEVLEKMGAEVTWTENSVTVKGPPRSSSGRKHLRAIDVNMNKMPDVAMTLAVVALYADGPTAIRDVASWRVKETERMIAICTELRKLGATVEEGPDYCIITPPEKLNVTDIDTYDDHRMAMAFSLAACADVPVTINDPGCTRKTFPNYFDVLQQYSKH
Description: To an assay mix (40 μl) containing shikimate-3-phosphate (2 mM), ^14 C-phosphoenolpyruvate (1 mM, 1.2 mCi/mmol), ammonium molybdate (0.1 mM), potassium fluoride (5 mM) in 50 mM HEPES-KOH, pH 7, was added the extract and incubated at 25° C. for 2 mins. The reaction was quenched by the addition of 50 μl of 50 μl of 90% ethanol/0.1M acetic acid, pH 4.5. 70 μl of the reaction mixture was loaded on a SynchroPak AX100 HPLC column (0.4×25 cm) and the column was eluted with 0.5M potassium phosphate, pH 5.5 at 1 ml/min. The radioactivity of the eluent was monitored using a Radiomatic Flo-One Beta Instrument. (Radiomatics, Fla.). The EPSP synthase activity was determined by measurement of the conversion of ^14 C-PEP to ^14 C-EPSP synthase, both of which are resolved under the above conditions of chromatography. The protein content of the extract was determined by the method of Bradford (Biorad Labs, Calif.). The specific activity of the extract is expressed as nanomoles of EPSP synthase formed/min/mg protein.
Kinetic constants (appKm PEP and appKi glyphosate) were determined for EPSP synthase as described below. Substrate kinetic parameters were determined at pH 7.0 in 50 mM HEPES (N-[2-hydroxyethyl]piperazine-N'-[2-ethanesulfonic acid]) buffer in the presence of 2 mM S3P and varying amounts of ^14 C-PEP (10 μM-400 μM), for 2.0 minutes at 25° C. Reactions were quenched with 100 mM Na Acetate in ethanol, pH 4.5, centrifuged and analyzed for product EPSP formation by HPLC with flow radioactivity detection. HPLC conditions were 0.35 MKPi, pH 6.5, on a Synchropak AX100 column at 1.0 ml/min.

[7] = test system: bacteria harboring pMON342 or pMON9566 (double pL promoter, petunia EPSP synthase); assay: Glyphosate tolerance of bacteria in growth media; assay type: cell-based, E. coli; details: very high expression of the enzyme
Description: The double pL promoter used to express the petunia EPSP synthase in pMON342 and pMON9566 leads to a very high level of expression of the enzyme. The enzyme is present at such high concentration that bacteria harboring either of these plasmids are tolerant to very high levels of glyphosate ([…]) in growth media, even though the enzyme produced by pMON342 is the wild type form. […] A plasmid for identifying such a promoter was constructed as follows: pMON9544, the precursor to pMON342, was digested with BamHI to remove the pL promoters, and was recircularized by ligation resulting in pMON362. The EcoRI fragment of pMON9556 containing the 3'-cDNA portion of the petunia EPSPS cDNA was then inserted into the EcoRI site of this plasmid reconstituting the entire coding sequence. The resulting plasmid, pMON364 is identical to pMON342 except that there is no promoter 5' of the EPSP synthase coding sequence.

O=C(O)CNCP(=O)(O)O [glyphosate, N-phosphonomethylglycine]
glyphosate concentration up to which growth on minimal medium is supported [1]: ≤ 20 mM | growth on 1 mM glyphosate ([2]; 1 mM glyphosate): could not support the growth | glyphosate concentration up to which growth on minimal medium is supported ([2]; minimal medium): up to 1 mM | Visual Appearance [3]: completely dead; also recorded: killed | Visual Appearance [4]: growing well; also recorded: healthy and viable | glyphosate tolerance of extracted EPSP synthase [5]: glyphosate tolerant | pKi [6]: 2.70 | Ki/Km ratio ([6]; Ki glyphosate / Km PEP): 10.0 | level of glyphosate tolerated in growth media [7]: > 50 µM
